# Assay results as given in PubChem BioAssay AID1963959 (Molecular Pharmacology Branch, DTP, NCI, 2024).
# “And” between values parts separate entries of the source, which are not always exact repeats. Identical values can stand only once.
# System: T-47D spheroids with HUVEC/MSC, viability
# Assay: Anticancer human tumor T-47D cell line growth inhibition [PI3K];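 further: spheroids exposed to agents for seven days before reading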;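 on viability, T/C: percent of DMSO vehicle control luminescence so 100% = untreated growth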
# Settings: for viability, T/C: stronger effect = lower value
# Outline: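 Complex 3D spheroids (cancer cells + endothelial HUVEC + mesenchymal stem cells); drug pairs of targeted agent x inavolisib/alpelisib/duvelisib/copanlisib; half-log series from ~Cmax, max 10 microM if Cmax unknown; endpoint viability.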
# [1] = curve of first compound, second compound 0.00316 µM
# [2] = curve of first compound, second compound 0.01 µM
# [3] = curve of first compound, second compound 0.0316 µM
# [4] = curve of first compound, second compound 0.1 µM
# [5] = curve of first compound, second compound 0.316 µM
# [6] = curve of first compound, second compound 1 µM
# [7] = second compound 0.00316 µM, first compound 0.0316 µM
# [8] = second compound 0.00316 µM, first compound 0.1 µM
# [9] = second compound 0.00316 µM, first compound 0.316 µM
# [10] = second compound 0.00316 µM, first compound 1 µM
# [11] = second compound 0.00316 µM, first compound 3.16 µM
# [12] = second compound 0.00316 µM, first compound 10 µM
# [13] = second compound 0.01 µM, first compound 0.0316 µM
# [14] = second compound 0.01 µM, first compound 0.1 µM
# [15] = second compound 0.01 µM, first compound 0.316 µM
# [16] = second compound 0.01 µM, first compound 1 µM
# [17] = second compound 0.01 µM, first compound 3.16 µM
# [18] = second compound 0.01 µM, first compound 10 µM
# [19] = second compound 0.0316 µM, first compound 0.0316 µM
# [20] = second compound 0.0316 µM, first compound 0.1 µM
# [21] = second compound 0.0316 µM, first compound 0.316 µM
# [22] = second compound 0.0316 µM, first compound 1 µM
# [23] = second compound 0.0316 µM, first compound 3.16 µM
# [24] = second compound 0.0316 µM, first compound 10 µM
# [25] = second compound 0.1 µM, first compound 0.0316 µM
# [26] = second compound 0.1 µM, first compound 0.1 µM
# [27] = second compound 0.1 µM, first compound 0.316 µM
# [28] = second compound 0.1 µM, first compound 1 µM
# [29] = second compound 0.1 µM, first compound 3.16 µM
# [30] = second compound 0.1 µM, first compound 10 µM
# [31] = second compound 0.316 µM, first compound 0.0316 µM
# [32] = second compound 0.316 µM, first compound 0.1 µM
# [33] = second compound 0.316 µM, first compound 0.316 µM
# [34] = second compound 0.316 µM, first compound 1 µM
# [35] = second compound 0.316 µM, first compound 3.16 µM
# [36] = second compound 0.316 µM, first compound 10 µM
# [37] = second compound 1 µM, first compound 0.0316 µM
# [38] = second compound 1 µM, first compound 0.1 µM
# [39] = second compound 1 µM, first compound 0.316 µM
# [40] = second compound 1 µM, first compound 1 µM
# [41] = second compound 1 µM, first compound 3.16 µM
# [42] = second compound 1 µM, first compound 10 µM
# [43] = curve of first compound, second compound 3.16 µM
# [44] = curve of first compound, second compound 10 µM
# [45] = second compound 3.16 µM, first compound 0.0316 µM
# [46] = second compound 3.16 µM, first compound 0.1 µM
# [47] = second compound 3.16 µM, first compound 0.316 µM
# [48] = second compound 3.16 µM, first compound 1 µM
# [49] = second compound 3.16 µM, first compound 3.16 µM
# [50] = second compound 3.16 µM, first compound 10 µM
# [51] = second compound 10 µM, first compound 0.0316 µM
# [52] = second compound 10 µM, first compound 0.1 µM
# [53] = second compound 10 µM, first compound 0.316 µM
# [54] = second compound 10 µM, first compound 1 µM
# [55] = second compound 10 µM, first compound 3.16 µM
# [56] = second compound 10 µM, first compound 10 µM
smiles,measurement,setting,value
C#Cc1c(F)ccc2cc(O)cc(-c3ncc4c(N5CC6CCC(C5)N6)nc(OCC56CCCN5CC(F)C6)nc4c3F)c12 (stereo unspecified) + COc1c(OCCCN2CCOCC2)ccc2c3n(c(=NC(=O)c4cnc(N)nc4)nc12)CCN3,IC50,[1],> 10 µM
same,IC50,[2],> 10 µM
same,IC50,[3],> 10 µM
same,IC50,[4],< 0.0316 µM
same,IC50,[5],< 0.0316 µM
same,IC50,[6],< 0.0316 µM
same,"viability, T/C",[7],102%
same,"viability, T/C",[8],93.1%
same,"viability, T/C",[9],93%
same,"viability, T/C",[10],82.5%
same,"viability, T/C",[11],116%
same,"viability, T/C",[12],109%
same,"viability, T/C",[13],95.1%
same,"viability, T/C",[14],99.9%
same,"viability, T/C",[15],105%
same,"viability, T/C",[16],99.5%
same,"viability, T/C",[17],114%
same,"viability, T/C",[18],111%
same,"viability, T/C",[19],80.5%
same,"viability, T/C",[20],78.8%
same,"viability, T/C",[21],79.8%
same,"viability, T/C",[22],84.8%
same,"viability, T/C",[23],79.2%
same,"viability, T/C",[24],87.5%
same,"viability, T/C",[25],45.1%
same,"viability, T/C",[26],46.4%
same,"viability, T/C",[27],46.8%
same,"viability, T/C",[28],49.2%
same,"viability, T/C",[29],39.6%
same,"viability, T/C",[30],49.5%
same,"viability, T/C",[31],20.2%
same,"viability, T/C",[32],14.5%
same,"viability, T/C",[33],20.5%
same,"viability, T/C",[34],22.3%
same,"viability, T/C",[35],22.3%
same,"viability, T/C",[36],27.1%
same,"viability, T/C",[37],7.11%
same,"viability, T/C",[38],6.61%
same,"viability, T/C",[39],8.19%
same,"viability, T/C",[40],8.13%
same,"viability, T/C",[41],5.78%
same,"viability, T/C",[42],9.52%
CNC(=O)c1ccc(N2C(=S)N(c3ccc(C#N)c(C(F)(F)F)c3)C(=O)C2(C)C)cc1F + CC(Nc1ncnc2nc[nH]c12)c1cc2cccc(Cl)c2c(=O)n1-c1ccccc1,IC50,[3],> 10 µM
same,IC50,[4],> 10 µM
same,IC50,[5],> 10 µM
same,IC50,[6],> 10 µM
same,IC50,[43],> 10 µM
same,IC50,[44],> 10 µM
same,"viability, T/C",[19],117%
same,"viability, T/C",[20],108%
same,"viability, T/C",[21],96.2%
same,"viability, T/C",[22],85.9%
same,"viability, T/C",[23],97.1%
same,"viability, T/C",[24],79.6%
same,"viability, T/C",[25],101%
same,"viability, T/C",[26],85.4%
same,"viability, T/C",[27],114%
same,"viability, T/C",[28],99.9%
same,"viability, T/C",[29],95.4%
same,"viability, T/C",[30],80.2%
same,"viability, T/C",[31],89%
same,"viability, T/C",[32],88%
same,"viability, T/C",[33],84.2%
same,"viability, T/C",[34],80.7%
same,"viability, T/C",[35],92.3%
same,"viability, T/C",[36],86.5%
same,"viability, T/C",[37],93.7%
same,"viability, T/C",[38],87.5%
same,"viability, T/C",[39],78.1%
same,"viability, T/C",[40],86%
same,"viability, T/C",[41],91.7%
same,"viability, T/C",[42],76.9%
same,"viability, T/C",[45],88.5%
same,"viability, T/C",[46],76.4%
same,"viability, T/C",[47],86%
same,"viability, T/C",[48],85.5%
same,"viability, T/C",[49],95.2%
same,"viability, T/C",[50],94%
same,"viability, T/C",[51],96.8%
same,"viability, T/C",[52],90.9%
same,"viability, T/C",[53],84.3%
same,"viability, T/C",[54],84.1%
same,"viability, T/C",[55],98.3%
same,"viability, T/C",[56],88.7%
CCCS(=O)(=O)Nc1ccc(F)c(C(=O)c2c[nH]c3ncc(-c4ccc(Cl)cc4)cc23)c1F + COc1c(OCCCN2CCOCC2)ccc2c3n(c(=NC(=O)c4cnc(N)nc4)nc12)CCN3,IC50,[1],> 10 µM
same,IC50,[2],> 10 µM
same,IC50,[3],> 10 µM
same,IC50,[4],< 0.0316 µM
same,IC50,[5],< 0.0316 µM
same,IC50,[6],< 0.0316 µM
same,"viability, T/C",[7],104%
same,"viability, T/C",[8],86.9%
same,"viability, T/C",[9],110%
same,"viability, T/C",[10],94.1%
same,"viability, T/C",[11],69.5%
same,"viability, T/C",[12],56.8%
same,"viability, T/C",[13],98.3%
same,"viability, T/C",[14],86.2%
same,"viability, T/C",[15],83.4%
same,"viability, T/C",[16],92.4%
same,"viability, T/C",[17],87.4%
same,"viability, T/C",[18],51.3%
same,"viability, T/C",[19],66.8%
same,"viability, T/C",[20],77%
same,"viability, T/C",[21],73.9%
same,"viability, T/C",[22],62.5%
same,"viability, T/C",[23],57.5%
same,"viability, T/C",[24],52.2%
same,"viability, T/C",[25],38%
same,"viability, T/C",[26],42.6%
same,"viability, T/C",[27],36.4%
same,"viability, T/C",[28],39.8%
same,"viability, T/C",[29],31.6%
same,"viability, T/C",[30],33.7%
same,"viability, T/C",[31],14.9%
same,"viability, T/C",[32],22.1%
same,"viability, T/C",[33],18.3%
same,"viability, T/C",[34],16.1%
same,"viability, T/C",[35],18.8%
same,"viability, T/C",[36],20.5%
same,"viability, T/C",[37],5.53%
same,"viability, T/C",[38],9.03%
same,"viability, T/C",[39],6.15%
same,"viability, T/C",[40],2.77%
same,"viability, T/C",[41],4.64%
same,"viability, T/C",[42],6.82%
CC1(C)CCC(Nc2ncc(C(F)(F)F)c(-c3c[nH]c4c(P(C)(C)=O)c(C#N)ccc34)n2)CN1 (stereo unspecified),"viability, T/C",compound 0.0316 µM,66% (2×) and 68.7% and 70.4%
same,"viability, T/C",compound 0.1 µM,72% [middle of 4 runs]
same,"viability, T/C",compound 0.316 µM,69.9% [middle of 4 runs]
same,"viability, T/C",compound 1 µM,79.7% [middle of 4 runs]
same,"viability, T/C",compound 3.16 µM,79.9% [middle of 4 runs]
same,"viability, T/C",compound 10 µM,54.5% (2×) and 54.6% and 58.2%
same,IC50,curve of compound,> 10 µM
Cn1ncc(Cl)c1-c1cc(C(=O)NC(CN)Cc2cccc(F)c2)sc1Cl (stereo unspecified),"viability, T/C",compound 0.0316 µM,102% [middle of 4 runs]
same,"viability, T/C",compound 0.316 µM,79.4% [middle of 4 runs]
same,"viability, T/C",compound 1 µM,81.8% [middle of 4 runs]
same,"viability, T/C",compound 3.16 µM,70.3% [middle of 4 runs]
same,"viability, T/C",compound 10 µM,89% [middle of 4 runs]
same,IC50,curve of compound,> 10 µM
Cn1ncnc1[C@H]1c2n[nH]c(=O)c3cc(F)cc(c23)N[C@@H]1c1ccc(F)cc1,"viability, T/C",compound 0.000316 µM,103% [middle of 4 runs]
same,"viability, T/C",compound 0.001 µM,98.3% [middle of 4 runs]
same,"viability, T/C",compound 0.01 µM,109% [middle of 4 runs]
same,"viability, T/C",compound 0.0316 µM,101% [middle of 4 runs]
same,IC50,curve of compound,> 0.1 µM
C=CC(=O)N1CCN(c2nc(=O)n(-c3c(C)ccnc3C(C)C)c3nc(-c4c(O)cccc4F)c(F)cc23)C(C)C1 (stereo unspecified) + CC(Nc1ncnc2nc[nH]c12)c1cc2cccc(Cl)c2c(=O)n1-c1ccccc1,IC50,[3],> 10 µM
same,IC50,[4],> 10 µM
same,IC50,[5],> 10 µM
same,IC50,[6],> 10 µM
same,IC50,[43],> 10 µM
same,IC50,[44],> 10 µM
same,"viability, T/C",[19],98.2%
same,"viability, T/C",[20],80.2%
same,"viability, T/C",[21],93.8%
same,"viability, T/C",[22],92.8%
same,"viability, T/C",[23],105%
same,"viability, T/C",[24],112%
same,"viability, T/C",[25],121%
same,"viability, T/C",[26],73%
same,"viability, T/C",[27],90.1%
same,"viability, T/C",[28],86.4%
same,"viability, T/C",[29],115%
same,"viability, T/C",[30],139%
same,"viability, T/C",[31],107%
same,"viability, T/C",[32],110%
same,"viability, T/C",[33],93.6%
same,"viability, T/C",[34],85.3%
same,"viability, T/C",[35],89.6%
same,"viability, T/C",[36],117%
same,"viability, T/C",[37],74.3%
same,"viability, T/C",[38],89.2%
same,"viability, T/C",[39],88.5%
same,"viability, T/C",[40],98.4%
same,"viability, T/C",[41],118%
same,"viability, T/C",[42],115%
same,"viability, T/C",[45],75.5%
same,"viability, T/C",[46],92.3%
same,"viability, T/C",[47],94%
same,"viability, T/C",[48],94.1%
same,"viability, T/C",[49],107%
same,"viability, T/C",[50],122%
same,"viability, T/C",[51],100%
same,"viability, T/C",[52],92.5%
same,"viability, T/C",[53],94%
same,"viability, T/C",[54],112%
same,"viability, T/C",[55],106%
same,"viability, T/C",[56],113%
